{"source": "patent US20030013099A1", "about": "“Genes regulated by DNA methylation in colon tumors” (priority 2001, published 2003)", "system": "HMEC cells", "assay": "microarray differential expression, HMEC cells treated with Aza", "type": "cell-based, human", "settings": "vs untreated, log base 2, negative = upregulation", "description": "HT29 cells were derived from a Grade II adenocarcinoma of the colon obtained from a person. HCT116 cells are a subpopulation of malignant cells isolated from a primary cell culture of a single human colonic carcinoma (Brattain et al. (1981) Cancer Res 41:1751-6). HMEC cells are a primary human epithelial cell line derived from the breast tissue of a normal donor. […] Treated cells were exposed to 500 nM 5-aza-2-deoxycytidine (Aza; Sigma-Aldrich) 24 hours after passage in complete culture medium. Control cultures were treated in parallel with phosphate buffered saline vehicle. After twenty-four hours, culture medium was replaced with drug-free medium. Control and Aza-treated cells were subcultured at equal densities at 1 and 5 days after the initial treatment, and proliferation was measured at the subsequent time point using a Coulter counter (Beckman Coulter, Fullerton Calif.). […]\nCells were harvested and lysed in 1 ml of TRIZOL reagent (5×10^6 cells/ml; Invitrogen). The lysates were vortexed thoroughly and incubated at room temperature for 2-3 minutes and extracted with 0.5 ml chloroform. The extract was mixed, incubated at room temperature for 5 minutes, and centrifuged at 16,000× g for 15 minutes at 4° C. The aqueous layer was collected, and an equal volume of isopropanol was added. Samples were mixed, incubated at room temperature for 10 minutes, and centrifuged at 16,000× g for 20 minutes at 4° C. The supernatant was removed, and the RNA pellet was washed with 1 ml of 70% ethanol, centrifuged at 16,000× g at 4° C., and resuspended in RNAse-free water. The concentration of the RNA was determined by measuring the optical density at 260 nm.\nPoly(A) RNA was prepared using an OLIGOTEX mRNA kit (Qiagen) with the following modifications: OLIGOTEX beads were washed in tubes instead of on spin columns, resuspended in elution buffer, and then loaded onto spin columns to recover mRNA. To obtain maximum yield, the mRNA was eluted twice.\nEach poly(A) RNA sample was reverse transcribed using MMLV reverse-transcriptase, 0.05 pg/μl oligo-d(T) primer (21mer), 1× first strand buffer, 0.03 units/ul RNAse inhibitor, 500 uM dAT?, 500 uM dGTP, 500 uM dTTP, 40 uM dCTP, and 40 uM either dCTP-Cy3 or dCTP-Cy5 (APB). The reverse transcription reaction was performed in a […] volume containing 200 ng poly(A) RNA using the GEMBRIGHT kit (Incyte Genomics). Specific control poly(A) RNAs (YCFRO6, YCFR45, YCFR67, YCFR85, YCFR43, YCFR22, YCFR23, YCFR25, YCFR44, YCFR26) were synthesized by in vitro transcription from non-coding yeast genomic DNA (W. Lei, unpublished). As quantitative controls, control mRNAs (YCFRO6, YCFR45, YCFR67, and YCFR85) at 0.002 ng, 0.02 ng, 0.2 ng, and 2 ng were diluted into reverse transcription reaction at ratios of 1:100,000, 1:10,000, 1:1000, 1:100 (w/w) to sample mRNA, respectively. To sample differential expression patterns, control mRNAs (YCFR43, YCFR22, YCFR23, YCFR25, YCFR44, YCFR26) were diluted into reverse transcription reaction at ratios of 1:3, 3:1, 1:10, 10:1, 1:25, 25:1 (w/w) to sample mRNA. Reactions were incubated at 37° C. for 2 hours, treated with […] of 0.5M sodium hydroxide, and incubated for 20 minutes at 85° C. to the stop the reaction and degrade the RNA.\ncDNAs were purified using two successive CHROMA SPIN 30 gel filtration spin columns (Clontech). Cy3- and Cy5-labeled reaction samples were combined as described below and ethanol precipitated using […] of 100% ethanol. The cDNAs were then dried to completion using a SpeedVAC system (Savant Instruments, Holbrook N.Y.) and resuspended in 14 μl 5× SSC, 0.2% SDS.\nHybridization reactions contained 9 μl of sample mixture containing 0.2 μg each of Cy3 and CyS labeled cDNA synthesis products in 5× SSC, 0.2% SDS hybridization buffer. The mixture was heated to 65° C. for 5 minutes and was aliquoted onto the microarray surface and covered with an 1.8 cm^2 coverslip. […]", "key": {"[1]": {"settings": "SEQ ID NO:1 hypothetical protein"}, "[2]": {"settings": "SEQ ID NO:3 interferon-inducible protein"}, "[3]": {"settings": "SEQ ID NO:5 chromosome 6p21.3, HLA Class I region"}, "[4]": {"settings": "SEQ ID NO:6 unnamed protein product"}, "[5]": {"settings": "SEQ ID NO:8 putative tumor antigen"}, "[6]": {"settings": "SEQ ID NO:12 cDNA clone ZD16H10"}, "[7]": {"settings": "SEQ ID NO:13, 14 T-cell receptor gamma"}, "[8]": {"settings": "SEQ ID NO:15 pTR5 repetitive sequence"}, "[9]": {"settings": "SEQ ID NO:24 pTR7 repetitive sequence"}, "[10]": {"settings": "SEQ ID NO:25 chromosome 21 segment HS21C049"}, "[11]": {"settings": "SEQ ID NO:26 hypothetical protein"}}}
{"compound": "Nc1ncn([C@H]2C[C@H](O)[C@@H](CO)O2)c(=O)n1", "note": "[Aza, 5-aza-2-deoxycytidine]", "values": [{"measurement": "differential expression, Clone ID 2416222, HMEC t/Aza (4d)", "setting": "[1]", "result": 0.00}, {"measurement": "differential expression, Clone ID 2416222, HMEC t/Aza (9d)", "setting": "[1]", "result": 0.00}, {"measurement": "differential expression, Clone ID 4103545, HMEC t/Aza (4d)", "setting": "SEQ ID NO:2 Incyte Unique", "result": "−0.13"}, {"measurement": "differential expression, Clone ID 4103545, HMEC t/Aza (9d)", "setting": "SEQ ID NO:2 Incyte Unique", "result": "−0.43"}, {"measurement": "differential expression, Clone ID 322569, HMEC t/Aza (4d)", "setting": "[2]", "result": "−0.53"}, {"measurement": "differential expression, Clone ID 322569, HMEC t/Aza (9d)", "setting": "[2]", "result": "−0.80"}, {"measurement": "differential expression, Clone ID 5322134, HMEC t/Aza (4d)", "setting": "[3]", "result": "−0.32"}, {"measurement": "differential expression, Clone ID 5322134, HMEC t/Aza (9d)", "setting": "[3]", "result": "−0.43"}, {"measurement": "differential expression, Clone ID 1698458, HMEC t/Aza (4d)", "setting": "[4]", "result": 0.26}, {"measurement": "differential expression, Clone ID 1698458, HMEC t/Aza (9d)", "setting": "[4]", "result": 0.26}, {"measurement": "differential expression, Clone ID 1871523, HMEC t/Aza (4d)", "setting": "SEQ ID NO:7 KIAA1046 protein", "result": "−0.24"}, {"measurement": "differential expression, Clone ID 1871523, HMEC t/Aza (9d)", "setting": "SEQ ID NO:7 KIAA1046 protein", "result": "−0.07"}, {"measurement": "differential expression, Clone ID 6024084, HMEC t/Aza (4d)", "setting": "[5]", "result": 0.00}, {"measurement": "differential expression, Clone ID 6024084, HMEC t/Aza (9d)", "setting": "[5]", "result": 0.00}, {"measurement": "differential expression, Clone ID 3810006, HMEC t/Aza (4d)", "setting": "SEQ ID NO:9 Incyte Unique", "result": 0.00}, {"measurement": "differential expression, Clone ID 3810006, HMEC t/Aza (9d)", "setting": "SEQ ID NO:9 Incyte Unique", "result": 0.00}, {"measurement": "differential expression, Clone ID 4508879, HMEC t/Aza (4d)", "setting": "SEQ ID NO:10 Incyte Unique", "result": "−0.14"}, {"measurement": "differential expression, Clone ID 4508879, HMEC t/Aza (9d)", "setting": "SEQ ID NO:10 Incyte Unique", "result": "−0.20"}, {"measurement": "differential expression, Clone ID 4225379, HMEC t/Aza (4d)", "setting": "SEQ ID NO:11 U 6 RNA", "result": 0.00}, {"measurement": "differential expression, Clone ID 4225379, HMEC t/Aza (9d)", "setting": "SEQ ID NO:11 U 6 RNA", "result": 0.00}, {"measurement": "differential expression, Clone ID 3463713, HMEC t/Aza (4d)", "setting": "[6]", "result": "−0.26"}, {"measurement": "differential expression, Clone ID 3463713, HMEC t/Aza (9d)", "setting": "[6]", "result": "−0.48"}, {"measurement": "differential expression, Clone ID 2998017, HMEC t/Aza (4d)", "setting": "[7]", "result": 0.00}, {"measurement": "differential expression, Clone ID 2998017, HMEC t/Aza (9d)", "setting": "[7]", "result": 0.00}, {"measurement": "differential expression, Clone ID 4318273, HMEC t/Aza (4d)", "setting": "[8]", "result": 0.00}, {"measurement": "differential expression, Clone ID 4318273, HMEC t/Aza (9d)", "setting": "[8]", "result": "−0.26"}, {"measurement": "differential expression, Clone ID 1649414, HMEC t/Aza (4d)", "setting": "SEQ ID NO:16 Hep27 protein", "result": "−0.32"}, {"measurement": "differential expression, Clone ID 1649414, HMEC t/Aza (9d)", "setting": "SEQ ID NO:16 Hep27 protein", "result": "−0.32"}, {"measurement": "differential expression, Clone ID 1684742, HMEC t/Aza (4d)", "setting": "SEQ ID NO:18 cDNA FLJ20222", "result": "−0.36"}, {"measurement": "differential expression, Clone ID 1684742, HMEC t/Aza (9d)", "setting": "SEQ ID NO:18 cDNA FLJ20222", "result": "−0.20"}, {"measurement": "differential expression, Clone ID 2825816, HMEC t/Aza (4d)", "setting": "SEQ ID NO:19 KIAA0412", "result": 0.00}, {"measurement": "differential expression, Clone ID 2825816, HMEC t/Aza (9d)", "setting": "SEQ ID NO:19 KIAA0412", "result": 0.00}, {"measurement": "differential expression, Clone ID 2440943, HMEC t/Aza (4d)", "setting": "SEQ ID NO:21 Incyte Unique", "result": "−0.20"}, {"measurement": "differential expression, Clone ID 2440943, HMEC t/Aza (9d)", "setting": "SEQ ID NO:21 Incyte Unique", "result": "−0.26"}, {"measurement": "differential expression, Clone ID 1294339, HMEC t/Aza (4d)", "setting": "SEQ ID NO:22 PDGF-B", "result": "−0.68"}, {"measurement": "differential expression, Clone ID 1294339, HMEC t/Aza (9d)", "setting": "SEQ ID NO:22 PDGF-B", "result": "−0.72"}, {"measurement": "differential expression, Clone ID 5104741, HMEC t/Aza (4d)", "setting": "SEQ ID NO:23 cDNA FLJ10570", "result": 0.00}, {"measurement": "differential expression, Clone ID 5104741, HMEC t/Aza (9d)", "setting": "SEQ ID NO:23 cDNA FLJ10570", "result": 0.00}, {"measurement": "differential expression, Clone ID 1855389, HMEC t/Aza (4d)", "setting": "[9]", "result": "−0.14"}, {"measurement": "differential expression, Clone ID 1855389, HMEC t/Aza (9d)", "setting": "[9]", "result": "−0.26"}, {"measurement": "differential expression, Clone ID 5207613, HMEC t/Aza (4d)", "setting": "[10]", "result": "−0.26"}, {"measurement": "differential expression, Clone ID 5207613, HMEC t/Aza (9d)", "setting": "[10]", "result": "−0.37"}, {"measurement": "differential expression, Clone ID 3207902, HMEC t/Aza (4d)", "setting": "[11]", "result": "−0.14"}, {"measurement": "differential expression, Clone ID 3207902, HMEC t/Aza (9d)", "setting": "[11]", "result": "−0.26"}, {"measurement": "differential expression, Clone ID 4999769, HMEC t/Aza (4d)", "setting": "SEQ ID NO:27 ZNFpT17", "result": 0.00}, {"measurement": "differential expression, Clone ID 4999769, HMEC t/Aza (9d)", "setting": "SEQ ID NO:27 ZNFpT17", "result": 0.07}, {"measurement": "differential expression, Clone ID 408886, HMEC t/Aza (4d)", "setting": "SEQ ID NO:28 transketolase", "result": "−0.26"}, {"measurement": "differential expression, Clone ID 408886, HMEC t/Aza (9d)", "setting": "SEQ ID NO:28 transketolase", "result": "−0.32"}, {"measurement": "differential expression, Clone ID 4764233, HMEC t/Aza (4d)", "setting": "SEQ ID NO:30 GAGE-8", "result": 0.00}]}
